# Results: patent US20250002471A1 (Gilead Sciences, Inc., priority 2020, published 2025)
# Molecular target: T1, TLR8 (Homo sapiens, UniProt Q9NR97)
# T1 construct: lymphocytes, monocytes and dendritic cells that express TLR7, TLR8 and TLR9; endogenous in cells; host or cells: human PBMCs from healthy donors
# T1 sequence (Q9NR97 27-1041): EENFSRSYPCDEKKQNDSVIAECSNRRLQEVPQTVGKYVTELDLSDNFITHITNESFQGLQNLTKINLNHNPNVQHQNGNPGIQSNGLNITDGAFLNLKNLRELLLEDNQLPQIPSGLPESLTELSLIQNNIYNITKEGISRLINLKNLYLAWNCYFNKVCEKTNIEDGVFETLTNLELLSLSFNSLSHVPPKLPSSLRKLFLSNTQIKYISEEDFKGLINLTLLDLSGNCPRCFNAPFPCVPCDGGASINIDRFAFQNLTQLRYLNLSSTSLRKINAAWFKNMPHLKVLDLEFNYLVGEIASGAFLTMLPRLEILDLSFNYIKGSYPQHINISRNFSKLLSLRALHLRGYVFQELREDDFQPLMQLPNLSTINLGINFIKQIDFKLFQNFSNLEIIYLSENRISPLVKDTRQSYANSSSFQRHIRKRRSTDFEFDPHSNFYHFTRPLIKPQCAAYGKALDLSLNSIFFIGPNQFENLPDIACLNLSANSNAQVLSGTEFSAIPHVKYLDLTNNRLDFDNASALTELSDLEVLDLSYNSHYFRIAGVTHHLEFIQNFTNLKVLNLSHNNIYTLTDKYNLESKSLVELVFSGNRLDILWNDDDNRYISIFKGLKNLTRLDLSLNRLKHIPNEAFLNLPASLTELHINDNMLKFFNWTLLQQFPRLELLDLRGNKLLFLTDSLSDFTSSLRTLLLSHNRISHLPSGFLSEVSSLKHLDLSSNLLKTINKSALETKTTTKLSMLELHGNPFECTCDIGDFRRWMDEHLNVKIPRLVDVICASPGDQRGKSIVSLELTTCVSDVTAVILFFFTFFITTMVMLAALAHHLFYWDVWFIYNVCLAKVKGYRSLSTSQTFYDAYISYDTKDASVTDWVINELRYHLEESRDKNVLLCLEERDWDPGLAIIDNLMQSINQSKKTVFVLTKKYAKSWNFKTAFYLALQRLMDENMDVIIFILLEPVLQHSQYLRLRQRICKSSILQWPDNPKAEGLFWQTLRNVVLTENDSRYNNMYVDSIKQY
# Test: TLR8 human PBMC cell-based assay, TLR8 agonist Compound A stimulation, cytokine (TNFa and IL12p40) readout
# Settings: human PBMCs, Compound A 800 nM, 6 hours; Table 26; read-out: TLR-8 EC50
# Protocol: Cryopreserved human PBMCs from healthy donors were thawed and resuspended in RPMI-1640 media with L-glutamine (Corning) supplemented with 10% Fetal Bovine Serum (Hyclone) and 1X Penicillin-Streptomycin (Corning). After counting, the cell density was adjusted to 2 million cells/ml and incubated for 1 hour at 37° C., 5% CO2 for recovery. Following the recovery, the cells were plated by adding 50p per well (100,000 cells) to 384-well cell culture plates (Greiner) containing 250nl of test antagonists in 100% DMSO per well, in a 10 points dose response in quadruplicates. PBMCs were incubated in the presence of antagonists for one hour at 37° C., 5% CO2 before being stimulated with TLR8 agonist. Compound A (Gilead Sciences, U.S. Pat. No. 10,285,990) was used as the TLR8 agonist at a final concentration of 800 nM. PBMCs were incubated in the presence of antagonist and the TLR8 agonist for an additional 6 hours at 37° C., […]. At the end of the incubation, the cell culture plates were centrifuged at 500 g for 5 min, and the cell culture supernatant was collected. The level of cytokines (TNFa and IL12p40) in the supernatant was measured by electrochemiluminescence immunoassays (Mesoscale Discovery) following manufacturer's recommended protocols. The level of cytokine measured was plotted against the antagonist concentration and fitted to a sigmoidal function to determine the EC50, which are shown below in Table 11.
row,EC50 [µM],SMILES
1,0.00375,"CCc1c(-c2cc(C)c3ncnn3c2)[nH]c2cc(-c3ccc(N4CCNCC4)nc3)ccc12 [Example 167, 6-(3-ethyl-6-(6-(piperazin-1-yl)pyridin-3-yl)-1H-indol-2-yl)-8-methyl-[1,2,4]triazolo[1,5-a]pyridine]"
2,0.0359,Cc1c(-c2cc(C)c3ncnn3c2)[nH]c2cc(-c3ccc(N4CCNCC4)nc3)ccc12 [Example 71]
3,0.00846,Cc1cc(-c2[nH]c3cc(-c4ccc(N5CCNCC5)nc4)ccc3c2C2CC2)cn(C)c1=O [Example 165]
4,0.00335,CCc1c(-c2cc(OC)c3ncnn3c2)[nH]c2cc(-c3ccc(N4CCNCC4)nc3)ccc12 [Example 169]

# The remaining lines, values behind:
row,SMILES,EC50 [µM]
1,"Cc1cc(-c2[nH]c3cc(-c4ccc(N5CCNCC5)nc4)ccc3c2C)cc(C)n1 [Example 1, 2-(2,6-dimethylpyridin-4-yl)-3-methyl-6-(6-(piperazin-1-yl)pyridin-3-yl)-1H-indole]",0.77
2,"Cc1cc(-c2[nH]c3cc(-c4ccc(N5CCN(CCO)CC5)nc4)ccc3c2C)cc(C)n1 [Example 37, 2-(4-(5-(2-(2,6-dimethylpyridin-4-yl)-3-methyl-1H-indol-6-yl)pyridin-2-yl)piperazin-1-yl)ethan-1-ol]",0.631
3,Cc1cc(-c2[nH]c3cc(C4CCNCC4)ccc3c2C(C)C)cn2ncnc12 [Example 55],0.00908
4,"Cc1cc(-c2[nH]c3cc(C4CCNCC4)ccc3c2C)cc(C)n1 [Example 48, 2-(2,6-dimethylpyridin-4-yl)-3-methyl-6-(piperidin-4-yl)-1H-indole]",0.57
